Active and inactive are the calls of the source. The rule behind the calls is not given here.
System: CCRIS mutagenicity, Ames/micronucleus/aberration tests
Assay: CCRIS mutagenicity studies
[1] = Test System: AMES SALMONELLA TYPHIMURIUM, Strain/Indicator: TA97, Metabolic Activation: NONE, Method: STANDARD PLATE
[2] = Test System: AMES SALMONELLA TYPHIMURIUM, Strain/Indicator: TA98, Metabolic Activation: NONE, Method: STANDARD PLATE
[3] = Test System: AMES SALMONELLA TYPHIMURIUM, Strain/Indicator: TA100, Metabolic Activation: NONE, Method: STANDARD PLATE
[4] = Test System: AMES SALMONELLA TYPHIMURIUM, Strain/Indicator: TA100, Metabolic Activation: RAT, LIVER, S-9, AROCLOR 1254, Method: STANDARD PLATE
[5] = Test System: AMES SALMONELLA TYPHIMURIUM, Strain/Indicator: TA102, Metabolic Activation: NONE, Method: STANDARD PLATE
[6] = Test System: AMES SALMONELLA TYPHIMURIUM, Strain/Indicator: TA98(1,8-DNP6), Metabolic Activation: NONE, Method: STANDARD PLATE
[7] = Test System: AMES SALMONELLA TYPHIMURIUM, Strain/Indicator: TA98, Metabolic Activation: RAT, LIVER, S-9, AROCLOR 1254, Method: STANDARD PLATE

ClC1C(Cl)C(Cl)C(Cl)C(Cl)C1Cl (centres undefined)
mutagenic call (End Point: IN VITRO CHROMOSOMAL ABERRATIONS, Test System: HUMAN PERIPHERAL BLOOD LYMPHOCYTES, Metabolic Activation: NONE): active; positive (structural changes)
mutagenic call [1]: inactive; negative
mutagenic call (Test System: AMES SALMONELLA TYPHIMURIUM, Strain/Indicator: TA97, Metabolic Activation: RAT, LIVER, S-9, AROCLOR 1254, Method: STANDARD PLATE): inactive; negative
mutagenic call [2]: inactive; negative
mutagenic call [3]: inactive; negative
mutagenic call [4]: inactive; negative
mutagenic call [5]: inactive; negative
mutagenic call (Test System: AMES SALMONELLA TYPHIMURIUM, Strain/Indicator: TA102, Metabolic Activation: RAT, LIVER, S-9, AROCLOR 1254, Method: STANDARD PLATE): inactive; negative
mutagenic call (Test System: CHINESE HAMSTER OVARY, Strain/Indicator: CHO (HPRT)/6-THIOGUANINE, Metabolic Activation: NONE): inactive; negative
mutagenic call (Test System: CHINESE HAMSTER OVARY, Strain/Indicator: CHO (HPRT)/6-THIOGUANINE, Metabolic Activation: S-9): inactive; negative
mutagenic call (Test System: UDS HUMAN HEPATOCYTES, Strain/Indicator: THY INCORP, Metabolic Activation: NONE, Method: AUTORADIOGRAPHY): inactive; negative
mutagenic call (Test System: UDS MOUSE HEPATOCYTES, Strain/Indicator: THY INCORP, Metabolic Activation: NONE, Method: AUTORADIOGRAPHY): inactive; negative
mutagenic call (Test System: UDS RAT HEPATOCYTES, Strain/Indicator: THY INCORP, Metabolic Activation: NONE, Method: AUTORADIOGRAPHY): inactive; negative

O=[N+]([O-])c1ccc2c(c1)c([N+](=O)[O-])cc1ccccc12
mutagenic call [6]: active; positive
mutagenic call (Test System: AMES SALMONELLA TYPHIMURIUM, Strain/Indicator: TA98(NR), Metabolic Activation: NONE, Method: STANDARD PLATE): active; positive
mutagenic call [2]: active; positive
mutagenic call [3]: active; positive
mutagenic call (Test System: AMES SALMONELLA TYPHIMURIUM, Strain/Indicator: YG1021, Metabolic Activation: NONE, Method: STANDARD PLATE): active; positive
mutagenic call (Test System: AMES SALMONELLA TYPHIMURIUM, Strain/Indicator: YG1024, Metabolic Activation: NONE, Method: STANDARD PLATE): active; positive
mutagenic call (Test System: AMES SALMONELLA TYPHIMURIUM, Strain/Indicator: YG1026, Metabolic Activation: NONE, Method: STANDARD PLATE): active; positive
mutagenic call (Test System: AMES SALMONELLA TYPHIMURIUM, Strain/Indicator: YG1029, Metabolic Activation: NONE, Method: STANDARD PLATE): active; positive

N/C(=N\O)c1cc(O)c(O)c(O)c1
mutagenic call [1]: active; positive
mutagenic call (Test System: AMES SALMONELLA TYPHIMURIUM, Strain/Indicator: TA97, Metabolic Activation: RAT, LIVER, S-9, DELOR 103, Method: STANDARD PLATE): active; positive
mutagenic call [2]: inactive; negative
mutagenic call (Test System: AMES SALMONELLA TYPHIMURIUM, Strain/Indicator: TA98, Metabolic Activation: RAT, LIVER, S-9, DELOR 103, Method: STANDARD PLATE): inactive; negative
mutagenic call [3]: inactive; negative
mutagenic call (Test System: AMES SALMONELLA TYPHIMURIUM, Strain/Indicator: TA100, Metabolic Activation: RAT, LIVER, S-9, DELOR 103, Method: STANDARD PLATE): inactive; negative
mutagenic call [5]: inactive; negative
mutagenic call (Test System: AMES SALMONELLA TYPHIMURIUM, Strain/Indicator: TA102, Metabolic Activation: RAT, LIVER, S-9, DELOR 103, Method: STANDARD PLATE): inactive; negative

Cc1cccc2c1-c1ccccc1C2C (centres undefined)
mutagenic call [7]: active; positive
mutagenic call [4]: active; positive

CC(C)(Cl)[N+](=O)[O-]
mutagenic call (Test System: AMES SALMONELLA TYPHIMURIUM, Strain/Indicator: TA98, Metabolic Activation: HAMSTER, LIVER, S-9, AROCLOR 1254 (30%), Method: PREINCUBATION): inactive; negative
mutagenic call (Test System: AMES SALMONELLA TYPHIMURIUM, Strain/Indicator: TA98, Metabolic Activation: NONE, Method: PREINCUBATION): inactive; negative
mutagenic call (Test System: AMES SALMONELLA TYPHIMURIUM, Strain/Indicator: TA98, Metabolic Activation: RAT, LIVER, S-9, AROCLOR 1254 (30%), Method: PREINCUBATION): inactive; negative
mutagenic call (Test System: AMES SALMONELLA TYPHIMURIUM, Strain/Indicator: TA100, Metabolic Activation: HAMSTER, LIVER, S-9, AROCLOR 1254 (30%), Method: PREINCUBATION): inactive; negative
mutagenic call (Test System: AMES SALMONELLA TYPHIMURIUM, Strain/Indicator: TA100, Metabolic Activation: NONE, Method: PREINCUBATION): active; positive
mutagenic call (Test System: AMES SALMONELLA TYPHIMURIUM, Strain/Indicator: TA100, Metabolic Activation: RAT, LIVER, S-9, AROCLOR 1254 (30%), Method: PREINCUBATION): inactive; negative
mutagenic call (Test System: AMES SALMONELLA TYPHIMURIUM, Strain/Indicator: TA1535, Metabolic Activation: HAMSTER, LIVER, S-9, AROCLOR 1254 (30%), Method: PREINCUBATION): inactive; negative
mutagenic call (Test System: AMES SALMONELLA TYPHIMURIUM, Strain/Indicator: TA1535, Metabolic Activation: NONE, Method: PREINCUBATION): inactive; negative
mutagenic call (Test System: AMES SALMONELLA TYPHIMURIUM, Strain/Indicator: TA1535, Metabolic Activation: RAT, LIVER, S-9, AROCLOR 1254 (30%), Method: PREINCUBATION): inactive; negative
mutagenic call (Test System: AMES SALMONELLA TYPHIMURIUM, Strain/Indicator: TA1538, Metabolic Activation: HAMSTER, LIVER, S-9, AROCLOR 1254 (30%), Method: PREINCUBATION): inactive; negative
mutagenic call (Test System: AMES SALMONELLA TYPHIMURIUM, Strain/Indicator: TA1538, Metabolic Activation: NONE, Method: PREINCUBATION): inactive; negative
mutagenic call (Test System: AMES SALMONELLA TYPHIMURIUM, Strain/Indicator: TA1538, Metabolic Activation: RAT, LIVER, S-9, AROCLOR 1254 (30%), Method: PREINCUBATION): inactive; negative

Nc1ccc(/C=C/c2ccccc2)cc1
mutagenic call [6]: inactive; negative
mutagenic call (Test System: AMES SALMONELLA TYPHIMURIUM, Strain/Indicator: TA98(1,8-DNP6), Metabolic Activation: S-9, Method: STANDARD PLATE): active; positive
mutagenic call (Test System: AMES SALMONELLA TYPHIMURIUM, Strain/Indicator: TA98, Metabolic Activation: RAT LIVER S9, AROCLOR, Method: STANDARD PLATE): active; positive
mutagenic call [7]: active; positive
mutagenic call (Test System: AMES SALMONELLA TYPHIMURIUM, Strain/Indicator: TA98, Metabolic Activation: S-9, Method: STANDARD PLATE): active; positive
mutagenic call [3]: inactive; negative
mutagenic call (Test System: AMES SALMONELLA TYPHIMURIUM, Strain/Indicator: TA100, Metabolic Activation: RAT, LIVER, S9, AROCLOR, Method: STANDARD PLATE): active; positive
mutagenic call [4]: active; positive
mutagenic call (Test System: AMES SALMONELLA TYPHIMURIUM, Strain/Indicator: TA100, Metabolic Activation: RAT, LIVER, S-9, PHENOBARBITAL, Method: STANDARD PLATE): active; positive
mutagenic call (Test System: AMES SALMONELLA TYPHIMURIUM, Strain/Indicator: TA100, Metabolic Activation: S-9, Method: STANDARD PLATE): active; positive
mutagenic call (Test System: AMES SALMONELLA TYPHIMURIUM, Strain/Indicator: TA1538, Metabolic Activation: RAT, LIVER, S-9, PHENOBARBITAL, Method: STANDARD PLATE): active; positive
